≈ marks a conversion by molar mass, not a printed value. Like-named read-outs stand apart in the source and are kept apart here. Bridge positions count the residues as written; N and C are the ends. Square brackets hold non-standard residues; d marks the D form. Peptide text beside a SMILES is read from it. * marks the point of attachment. Benzoyl(4-Ph) = O=C(c1ccc(-c2ccccc2)cc1)*; X1 = CC[C@H](C)CCCCC(=O)*; Dab = NCC[C@H](N)C(=O)O

5 molecules from patent US20250346633A1, “MACOLACINS AND METHODS OF USE THEREOF” (priority 2021, published 2025) can be followed below.

Data set [1] concerns A. baumannii 0301 with mcr-1. Conditions: colistin R.
The conditions of data set [2]: mouse, in vivo, sc, 10 mg/kg.
Protocol: (§1) Six-week old CD-1 female mice (20-25 g) were used in pharmacokinetic studies. […] Aliquots of 20 μL of blood were taken by puncture of the lateral tail vein from each mouse (n=2 per route and dose) at 30 minutes, 1, 3, and 5 hours post-dose and captured in CB300 blood collection tubes containing K2EDTA and stored on ice. Plasma was recovered after centrifugation and stored at −80° C. until analyzed by high pressure liquid chromatography coupled to tandem mass spectrometry. […] Standards and QCs were created by adding 10 μL of spiking solutions to 90 μL of drug free plasma (CD-1 K2EDTA Mouse, Bioreclamation IVT). 10 μL of control, standard, QC, or study samples were added to 10 μL of internal standard. […] The compounds were extracted by adding 100 μL of 50% Methanol/50% (10% Trichloroacetic acid in water) precipitation solvent. Extracts were vortexed for 5 minutes and centrifuged at 4,000 rpm for 5 minutes. 75 μL of supernatant was transferred for HPLC-MS/MS analysis and diluted with 75 μL of Milli-Q deionized water. LC-MS/MS analysis was performed on a Sciex Applied Biosystems Qtrap 6500+triple-quadrupole mass spectrometer coupled to a Shimadzu Nexera×2 UHPLC system to quantify each drug in plasma. […] Multiple-reaction monitoring of parent/daughter transitions in electrospray positive-ionization mode was used to quantify the analytes. […]
Data set [3] concerns CRAB, as well as a panel of XDR A. baumannii clinical isolates. Conditions: CRAB and XDR A. baumannii clinical isolates, even when transformed with mcr-1.
Protocol: MIC assays were conducted following the protocol recommended by the Clinical and Laboratory Standards Institute (Testing E C et al., 2016, EUCAST: Växjö; Wikler M A et al., 2006, CLSI (NCCLS), 26: M7-A7). […] Polymyxin B sulfate (Sigma, USA) and colistin sulfate (Sigma, USA) were used as positive controls. […] The top and bottom rows of each plate were filled with 100 μL of LB broth without compound to avoid edge effects. The last well in each row was treated as a negative control. It contained bacteria but no test compounds. A single colony of each assayed bacterial strain was inoculated into 5 mL of LB broth medium and grown overnight at 37° C. (200 rpm). For assays using bacteria containing mcr-1 expression plasmids, the appropriate selection antibiotic was added to keep the plasmid stable (concentrations are listed in Table 5). Saturated overnight cultures were diluted 5,000-fold in fresh LB, and then 50 μL was transferred into individual wells of a 96-well plate.
In data set [4] the test system is A. baumannii ATCC17978. Put plainly: CHIR-090 inhibition assay (growth curves). Conditions: for A. baumannii growth: antibiotic alone at concentrations above MIC; for A. baumannii growth / A. baumannii growth with CHIR-090 included: 48 hours; for A. baumannii growth with CHIR-090 included: antibiotic plus CHIR-090. It counts as cell-based, Acinetobacter baumannii.

For a further data set, the system named is A. baumannii 0286. Conditions: mcr-1 −, colistin S.
In data set [5] the test system is A. baumannii-0301-(mcr-1). Put plainly: Neutropenic thigh infection model. Conditions: neutropenic mouse thigh, 20 mg/kg SC at 6 hour intervals, 24 h. It is filed as in vivo, Acinetobacter baumannii.
Protocol: (§2) After 24 hours the bacterial burden in each infected thigh was determined based on colony forming units (CFUs) that arose from homogenized tissue samples.
(§3) Six-week old female outbred Swiss Webster mice (20-25 g) were used for this experiment. Mice were housed in individually ventilated cages (IVC) and maintained in accordance with American Association for Accreditation of Laboratory Care criteria. Acinetobacter baumannii SM1536-(mcr-1) or A. baumannii-0301-(mcr-1) was grown in cation adjusted Mueller Hinton (MH) broth containing 50 μg/mL of gentamycin at 37° C. with shaking overnight. The cultures were centrifuged, supernatant aspirated and the bacteria were gently washed twice in sterile saline. […] All mice were closely monitored post-infection for morbidity. Any abnormal clinical signs were recorded if observed. […] The treatment efficacy was determined both as the bacterial burden reduction in the thighs relative to the vehicle and colistin treated controls. All graphic data are expressed as columnar average data points by group and were statistically analyzed using computer Prism software (Prism 9). Burden differences between testing and control groups was assessed by post-hoc analysis, using the Mann-Whitney comparison test. […]
Another data set concerns P. aeruginosa PA01. Conditions: colistin S, n=2.
Data set [6] concerns E. cloacae ATCC13047 (ΔphoP/Q).
Protocol: (§4) MIC assays were conducted following the protocol recommended by the Clinical and Laboratory Standards Institute (Testing E C et al., 2016, EUCAST: Växjö; Wikler M A et al., 2006, CLSI (NCCLS), 26: M7-A7). […] Polymyxin B sulfate (Sigma, USA) and colistin sulfate (Sigma, USA) were used as positive controls. […] The top and bottom rows of each plate were filled with 100 μL of LB broth without compound to avoid edge effects. The last well in each row was treated as a negative control. It contained bacteria but no test compounds. A single colony of each assayed bacterial strain was inoculated into 5 mL of LB broth medium and grown overnight at 37° C. […] Saturated overnight cultures were diluted 5,000-fold in fresh LB, and then 50 μL was transferred into individual wells of a 96-well plate.
In the next data set the test system is K. pneumoniae 10031. Conditions: colistin S, n=2.
The subject of a further data set is A. baumannii 0287. Conditions: mcr-1 −, colistin S.
Data set [7] relates to A. baumannii ATCC17978.
Another data set has as its system A. baumannii 0295. Conditions: mcr-1 −, colistin S.
Another data set in a line: MTT cytotoxicity assay. It counts as cell-based. Conditions: HEK293, human cells. As to the method:
Compounds with different concentrations were then added into each well. After 48 h of incubation, the media was removed and MTT solution (0.45 mg/mL) was added into each well. After 3 h of incubation, the solution was aspirated. […] The absorbance of each well was measured at OD570nm using a microplate reader (Epoch Microplate Spectrophotometer, BioTek). Taxol was used as the positive control. […] All the experiments were performed triplicates (n=3).

Another data set relates to A. baumannii 0282. Conditions: mcr-1 −, colistin S.
Data set [8] deals with S. typhimurium 0635 (mcr-1 clinical isolate). Conditions: colistin R.
The test system of data set [9] is A. baumannii SM1536-(mcr-1). Put plainly: Neutropenic thigh infection model. It is filed as in vivo, Acinetobacter baumannii. Conditions: neutropenic mouse thigh, 20 mg/kg SC at 6 hour intervals, 24 h.
Protocol: as §2, §3
The test system of data set [10] is A. baumannii 0295 with mcr-1. Conditions: colistin R.
In data set [11] the test system is A. baumannii 0287 with mcr-1. Conditions: colistin R.
For a further data set, the system named is A. baumannii SM1536. Conditions: colistin S.
Data set [12] can be described thus: Pharmacokinetics assessment. Conditions: mice; single subcutaneous dose of 10 mg/kg; FIG. 9.
Protocol: as §1
The subject of data set [13] is K. pneumoniae 0497 (mcr-1 clinical isolate). Conditions: colistin R.
For data set [14], the system named is A. baumannii SM1536 (pMQ124xlab1-mcr-1).
For the next data set, the system named is A. baumannii 0296. Conditions: mcr-1 −, colistin S.
The next data set deals with E. faecium Com15. Conditions: colistin R, n=2.
The subject of data set [15] is A. baumannii ATCC17978 (pMQ124xlab1-mcr-1).
Another data set has as its system S. aureus SH1000. Conditions: colistin R, n=2.
Data set [16] relates to K. pneumoniae and A. baumannii. Kind of data set: MIC upon addition of cell wall components (lipid A, LPS) to the media. Conditions: FIG. 3C; n=2. It counts as cell-based, Klebsiella pneumoniae; Acinetobacter baumannii.
Data set [17] relates to K. pneumoniae ATCC13883 (pMQ124-mcr-1).
The subject of a further data set is E. cloacae 0150. Conditions: colistin S, n=2.
Data set [18] has as its system E. cloacae ATCC13047 (ΔphoP/Q + phoP/Q). Conditions: colistin R.
Protocol: as §4
The subject of another data set is K. pneumoniae ATCC13883. Conditions: colistin S, mcr-1 engineered pair.
The next data set concerns Gram−positive pathogens. Put plainly: MIC against ESKAPE pathogens. It counts as cell-based. Conditions: highest concentration tested 128 μg/mL.
Data set [19] deals with K. pneumoniae and A. baumannii transformed with a plasmid expressing mcr-1. It is filed as cell-based, Klebsiella pneumoniae; Acinetobacter baumannii.
Setting [20] is: A. baumannii ATCC17978, colistin S, mcr-1 engineered pair.
Setting [21] is: A. baumannii SM1536 (pMQ124xlab1-mcr-1), colistin R.
[22] abbreviates: extremely highly colistin resistant A. baumannii.

In the case of `CC[C@H](C)[C@@H]1NC(=O)[C@@H](CC(C)C)NC(=O)[C@H](CCN)NC(=O)[C@@H](NC(=O)[C@@H](CO)NC(=O)[C@@H](NC(=O)[C@H](CCN)NC(=O)c2ccc(-c3ccccc3)cc2)[C@@H](C)O)CCNC(=O)[C@H](CC(C)C)NC(=O)[C@H](CCN)NC(=O)[C@H](CCN)NC1=O` [Biphenyl-macolacin] ({Benzoyl(4-Ph)}-[Dab]T[dS][Dab][Dab][dL]I[Dab][Dab]L; lactam 4-C), the “Antibiotic MIC” value in data set [1] is 1 µg/mL; in [1] (listed as biphenyl-macolacin), < 2 µg/mL; in the data set with A. baumannii 0301 (0301), 0.5 µg/mL. For the same molecule, the “plasma drug exposure (pharmacokinetic profile)” value in data set [2] is on record as “parity in plasma drug exposure”. This molecule also displayed an MIC in the data set with Proteus vulgaris of 4 µg/mL (≈ 3.31 µM). Further, the MICs in [3] is < 2 µg/mL.
Consider `C[C@@H](O)[C@H](NC(=O)c1ccc(C#Cc2ccc(CN3CCOCC3)cc2)cc1)C(=O)NO` [CHIR-090], for which the “A. baumannii growth, CHIR-090 alone” value with A. baumannii ATCC17978 [4] (CHIR-090 alone) is “did not inhibit A. baumannii growth”.
Take `CC[C@H](C)CCCCC(=O)N[C@@H](CCN)C(=O)N[C@H](C(=O)N[C@@H](CCN)C(=O)N[C@H]1CCNC(=O)[C@H]([C@@H](C)O)NC(=O)[C@H](CCN)NC(=O)[C@H](CCN)NC(=O)[C@H](CC(C)C)NC(=O)[C@@H](CC(C)C)NC(=O)[C@H](CCN)NC1=O)[C@@H](C)O` [Colistin, colistin] (X1-[Dab]T[Dab][Dab][Dab][dL]L[Dab][Dab]T; lactam 4-C): the “Antibiotic MIC” value in the data set on A. baumannii 0286 was 1 µg/mL; in [1], >128 µg/mL; in data set [1] (listed as colistin), > 64 µg/mL; in the data set on A. baumannii 0287, 0.5 µg/mL; in the data set on A. baumannii 0295, 0.25 µg/mL; in the data set with A. baumannii 0282, 0.5 µg/mL. For the same molecule, the “Antibiotic MIC” value in [10] is >128 µg/mL; in [11] it was 64 µg/mL; with A. baumannii 0296 it was 0.25 µg/mL; in the data set on A. baumannii 0301 (A. baumannii 0301, mcr-1 −, colistin S), 0.25 µg/mL. In addition, the “bacterial burden in infected thighs” value in data set [5] and in [9] was “did not reduce the bacterial burden below the level of the initial infection” in each case. Also, the MIC was determined as 1 µg/mL (≈ 0.855 µM) in the data set with P. aeruginosa PA01; 1 µg/mL (≈ 0.855 µM) in [6]; 0.5 µg/mL (≈ 0.428 µM) against K. pneumoniae 10031; 1 µg/mL (≈ 0.855 µM) against A. baumannii ATCC17978 [7] (setting [20]); 16 µg/mL (≈ 13.7 µM) in data set [8]; 0.5 µg/mL (≈ 0.428 µM) in the data set on A. baumannii SM1536. For the same molecule, the MIC in data set [13] is 32 µg/mL (≈ 27.4 µM); in data set [14] (setting [21]) it was 128 µg/mL (≈ 109 µM); in data set [14] (setting [22]) it was > 128 µg/mL; in the data set with E. faecium Com15, >128 µg/mL; in [15] (ATCC17978), 32 µg/mL (≈ 27.4 µM); in the data set with S. aureus SH1000 it was >128 µg/mL. Further, the MIC in data set [17] (ATCC13883) is 64 µg/mL (≈ 54.7 µM); with E. cloacae 0150, 1 µg/mL (≈ 0.855 µM); in [18], 32 µg/mL (≈ 27.4 µM); in data set [18] (listed as colistin), “resistant”; against K. pneumoniae ATCC13883 it was 1 µg/mL (≈ 0.855 µM). The IC50 at 48 h in the data set “MTT cytotoxicity assay” was > 512 µg/mL. Besides, in the data set with A. baumannii ATCC17978 [4], the A. baumannii growth result is listed as “completely abrogated A. baumannii growth”. In addition, the “A. baumannii growth with CHIR-090 included” value in the data set with A. baumannii ATCC17978 [4] is recorded as “rescued A. baumannii growth”. Further, the “plasma drug exposure (pharmacokinetic profile)” value in data set [12] is recorded as “parity in plasma drug exposure”. The “change of MIC on addition of lipid A or lipopolysaccharide (LPS) to the assay media” value in [16] was “significant increase”.
Turning to `CC[C@H](C)CCCCC(=O)N[C@@H](CCN)C(=O)N[C@H](C(=O)N[C@H](CO)C(=O)N[C@H]1CCNC(=O)[C@H](CC(C)C)NC(=O)[C@H](CCN)NC(=O)[C@H](CCN)NC(=O)[C@H]([C@@H](C)CC)NC(=O)[C@@H](CC(C)C)NC(=O)[C@H](CCN)NC1=O)[C@@H](C)O` [Macolacin] (X1-[Dab]T[dS][Dab][Dab][dL]I[Dab][Dab]L; lactam 4-C), the A. baumannii growth result in the data set with A. baumannii ATCC17978 [4] is “completely abrogated A. baumannii growth”. Also, the “A. baumannii growth with CHIR-090 included” value in the data set with A. baumannii ATCC17978 [4] is reported as “rescued A. baumannii growth”. The “activity against Gram−positive pathogens” value in the data set with Gram−positive pathogens is recorded as “no activity”. For the same molecule, the figures for the MIC in data set [14] (setting [22]), in data set [15] and in data set [18] were 8 µg/mL (≈ 6.85 µM), 2 µg/mL (≈ 1.71 µM) and 2 µg/mL (≈ 1.71 µM), respectively. Besides, in the data set with A. baumannii 0301 (0301), the “Antibiotic MIC” value was 0.5 µg/mL. For the same molecule, the “increase in MIC upon mcr-1 expression” value in data set [19] was 2- to 4 fold. Also, the “change of MIC on addition of lipid A or lipopolysaccharide (LPS) to the assay media” value in data set [16] is recorded as “significant increase”.
For the molecule Polymyxin B, the MIC in the data set with P. aeruginosa PA01 is 2 µg/mL; in data set [6], 1 µg/mL; against K. pneumoniae 10031, 1 µg/mL; against A. baumannii ATCC17978 [7], 0.5 µg/mL; in the data set with A. baumannii ATCC17978 [7] (setting [20]), 0.5 µg/mL; in data set [8] it was 16 µg/mL. Moreover, the MIC against A. baumannii SM1536 was 1 µg/mL; in [13] it was 32 µg/mL; in data set [14] (setting [21]), 128 µg/mL; in the data set on E. faecium Com15 it was >128 µg/mL; in data set [15] it was 16 µg/mL; in the data set with S. aureus SH1000, >128 µg/mL. Besides, the MIC is 128 µg/mL in data set [17]; 1 µg/mL against E. cloacae 0150; 32 µg/mL in [18]; “resistant” in [18] (listed as polymyxin B); 1 µg/mL with K. pneumoniae ATCC13883.
